Results published in patent publication US20070087982A1, “Methods of treatment and diagnosis using modulators of virus-induced cellular gene sequences” (priority 2003, published 2007).

Legend:
HIV-infected MT-2 cells = assay: HIV-induced syncytia formation in MT-2 cells; type: cell-based, human; conditions: 48 hours post infection
Experimental: The panels of FIG. 7 show the relative extent of HIV-induced syncytia formation in MT-2 cells at 48 hours post infection under various conditions. “Control” cells are HIV-infected cells, but are not treated with any test agent. “DMSO” treatment alone is also included as a control. Other treatments include, AZT, PP3 and PP2, all solubilized in DMSO.

WNV E protein = assay: Endo H / PNGase F sensitivity of WNV E protein in infected Vero cells (western blot); type: cell-based, West Nile virus; conditions: WNV multiplicity 3, PP2 added 1 hpi, 24 hpi, consistent at 48 h
Experimental: Inhibition of src-family kinases (SFKs) may result in mis-localization or aberrant trafficking of WNV proteins, thereby interfering with formation of infectious particles. To test this hypothesis, lysates from WNV-infected cells (with or without PP2) were treated with Endoglycosidase H (Endo H) or Peptide N-glycosidase F (PNGase F).
Endo H removes immature high-mannose glycans from proteins. High-mannose structures are added to proteins in the endoplasmic reticulum (ER). Such structures are trimmed and further modified in the Golgi, conferring resistance to endo H. Sensitivity to endo H is therefore indicative of proteins that have not advanced beyond the endoplasmic reticulum in the secretory pathway (Maley, et al., Anal. Biochem. 180:195, 1989.
PNGase F will remove all glycan moieties regardless of modification.
Methods. Vero cells were infected with WNV (multiplicity=3) and treated with PP2 (or DMSO as a control) 1 h post-infection (hpi). At 24 or 48 hpi, cells were lysed in buffer containing 1% NP-40. Lysates were denatured and treated with endo H or PNGase F for 1 h. Samples were resolved by SDS-PAGE, and WNV E was detected by western blotting.

WNV RNA = assay: Quantitative RT-PCR (Taqman) of WNV RNA within infected SKN-MC cells; type: cell-based, West Nile virus; conditions: 4 hours post PP2 addition, normalized to β-actin
Experimental: Specifically, cells were prepared as described above in relation to FIG. 8B. Four hours post fresh PP2 addition, RNA was isolated from 200 μl of cell lysate by Trizol reagent (Invitrogen), and 1 μg total RNA was used in a quantitative RT-PCR reaction (Taqman) using WNV-specific primer and probe set and standards. An additional RT-PCR was performed using β-actin-specific primers and probe, for an internal control. WNV RNA quantities were normalized to the β-actin values.

WNV = assay: Infectious WNV within infected SKN-MC cell lysates (plaque assay on Vero cells); type: cell-based, West Nile virus
Experimental: Additionally, infectious virus within infected cell lysates was decreased almost 10^6-fold four hours post-addition of PP2 (FIG. 8B, gray bars; and FIG. 15, left panel). […] Specifically, SKN-MC cells were infected with WNV as above. At 2 hpi, cells were treated with PP2 at the indicated final concentrations. At 20 hpi, cells were re-fed with media containing fresh PP2 at the same concentration. Cells were washed 3-times with phosphate buffered saline (PBS), resuspended in 250 μl PBS, and then lysed by 3 successive freeze/thaws. Lysates were centrifuged at 13,000×g for 5 minutes, followed by collection of the supernatant. Infectious virus in soluble lysate was measured by plaque assay on Vero cells. Samples were collected 4-hours post-addition of fresh PP2 (gray bars) and 24 hours post addition of fresh PP2 (black bars). 24-hours post-addition of PP2, virus within the infected cell was approximately 500-fold lower, indicating some recovery from the effect of the drug (FIG. 8B, black bars).

HIV-1 89.6 [1] = assay: HIV replication assay (HIV-1 p24 antigen ELISA) in HIV-infected THP-1 and MT-2 cells; type: cell-based; conditions: for Extent of PMO-induced Inhibition of HIV replication: HIV-1 89.6, measured by gag p24 production, gene-specific PMO antisense
Description: Introduction of antisense PMO into HIV-infected THP-1 or MT-2 cells. Antisense PMO molecules, for delivery purposes, are typically converted to a paired duplex together with a partially complementary cDNA oligonucleotide in the weakly basic delivery reagent ethoxylated polyethylenimine (EPEI) (Summerton, supra). The anionic complex binds to the cell surface, is taken up by endocytosis and eventually released into the cytosol. A protocol for optimum uptake of antisense PMO in THP-1 and MT-2 cells was developed using a modification of the EPEI method. PMO-AS were obtained from GeneTools (Genetools, LLC, One Summerton Way, Philomath, Oreg. 97370).
Briefly, loading into target cells was accomplished by complexing the PMO with a proprietary loading reagent, Ethoxylated Polyethylenimine (EPEI). Target cells (MT-2 or THP-1) were introduced into snap cap conical tubes (5×10^5 cells/tube) in 900 μl serum free RPMI and the EPEI-PMO complex was added for 4 hours at 37° C. in a 7% CO2 atmosphere. The PMO-EPEI complex was prepared by diluting 5 μl PMO in 40 μl sterile RNase-free water, adding 5 μl EPEI, vortexing and incubating the sample for 20 minutes at room temperature. The sample was then mixed with 50 μl serum-free RPMI and added to the target cells to yield a final volume of 1 ml. At the end of the loading period, cells were gently pelleted and the PMO solution was removed by aspiration. After a further wash, cells were incubated in complete RPMI for 12 hrs prior to HIV infection to allow for recovery and initiation of PMO action.
HIV-1 Infection. PMO-treated THP-1 or MT-2 cells were infected with 50 μl of concentrated HIV-1 89.6 diluted to 1 ml in serum-free RPMI. The following control cultures were identically infected: (i) to control for any non-specific effect of the loading protocol, cells exposed to EPEI alone during the loading procedure; (ii) as a positive control for normal HIV infection, cells that were not exposed to either EPEI or EPEI-PMO; (iii) as a control for HIV inhibition, cells infected with HIV in the presence of 2 μM AZT and maintained in AZT throughout.
Cells were exposed to HIV for 4 hours. The inoculum was removed by 3 cycles of pelleting and rinsing. The cells were resuspended in 1.5 ml of complete RPMI and 0.5 ml immediately removed at Time 0 to leave a final volume of 1 ml. The Time 0 sample served as a measure of residual virus. At each harvest time (T1 through T4), 0.5 ml of supernatant was removed and replaced with an equal volume of complete RPMI. Samples were stored at −80° C. until evaluation using a p24 ELISA assay (described below). Each experimental variable and control was performed in duplicate. T1 through T4 typically corresponded to 16, 24, 40 and 48 hrs PI, respectively.
Validation of KSHV-induced gene sequences; HIV-1 p24 antigen ELISA. To monitor the effect of PMO-targeting of cellular proteins on HIV replication, supernatants harvested from PMO-treated and control THP and MT-2 cells were assayed using an HIV p24 antigen ELISA. The rationale behind this assay is described in the following paragraph.
The HIV-1 gag protein p24 is the major internal structural component of the virion core. The Coulter p24 assay is an enzyme-liked immunosorbent assay (ELISA) performed using a commercially available kit (Beckman Coulter). It was developed specifically for the detection and quantitation of HIV-1 p24 in plasma or serum, for clinical purposes, or in tissue culture supernatants, to monitor virus replication. Each kit contains a 96-well microtiter tray pre-coated with a monoclonal antibody to p24. A specimen of plasma, serum or tissue culture supernatant is added to each well along with a viral lysis buffer and incubated to allow any p24 antigen present to bind to the coated well. Following a wash, biotinylated human anti-HIV IgG is added and incubated to allow complexing to any bound p24. Following another wash, strepatavidin-HRP is added to complex with any bound biotinylated complexes. […]

WNV (NY1999) = assay: Infectious WNV in culture supernatant of SKN-MC cells (plaque assay on Vero cells); type: cell-based, West Nile virus; conditions: multiplicity of infection 5, 20 μM, 22 hours post-infection (20 h post-PP2 addition)
Description: SKN-MC neutoblastoma cells were infected with WNV at a multiplicity of 5.

HIV-1 89.6 [2] = assay: HIV replication assay (HIV-1 p24 antigen ELISA) in HIV-infected THP-1 and MT-2 cells; type: cell-based; conditions: MT-2 cells infected with HIV 89.6; continued presence of 10 μM
[3] = system: mitochondrial respiration in viable cells; assay: XTT respiration assay to assess compound toxicity; type: cell-based; conditions: at the concentrations used (20/40 μM Doxepin, 50/100 μM Pyrilamine, 50/100 μM Acyclovir, 20 μM PP2, 20 μM PP3)
Description: The agents tested are cross-referenced to the respective bar graphs as shown in insert of the right panel. […] Briefly, the XTT assay is based on the cleavage of XTT (sodium 3-[1-(phenylamino-carbonyl)-3,4-tetrazolium]-bis (4-methoxy-6-nitro) benzene sulfonic acid hydrate) to form formazan by mitochondrial respiration in viable cells (see, e.g., Marshall et al., Growth Regul. 5:69-84, 1995).

c-yes mRNA = assay: Quantitative RT-PCR of c-yes mRNA in siRNA-transfected Huh7 cells; type: cell-based, human; conditions: 2 μl of 20 μM siRNA per 300,000 cells, harvested 24 hpi
Experimental: Huh7 cells were transfected with either of c-yes-specific siRNAs 214 or 316, or a control siRNA directed against Lamins A and C. Transfection of 300,000 cells was carried out with 2 μl of a 20 μM siRNA (Dharmacon) and 1 μl Oligofectamine (Invitrogen) according to the manufacturer's protocol. Cells were […] 24 hours post-transfection, and cells and supernatant harvested at 24 hpi. 1 μg total cellular RNA was used for quantitative RT-PCR with c-yes-specific primers.

[4] = PMO-treated HIV-infected MT-2 cells
[5] = PMO-treated HIV-infected THP-1 cells

Row | Compound | Extent of PMO-induced Inhibition of HIV replication (HIV-1 89.6 [1]) | inhibition of HIV replication (HIV p24 gag production) (HIV-1 89.6 [1]; [4]) | inhibition of HIV replication (HIV p24 gag production) (HIV-1 89.6 [1]; [5]) | also measured
1 | Cc1cn([C@H]2C[C@H](N=[N+]=[N-])[C@@H](CO)O2)c(=O)[nH]c1=O [AZT] | – | – | – | HIV-induced syncytia formation (HIV-infected MT-2 cells): substantially reduced syncytia formation
2 | CC(C)(C)n1nc(-c2ccc(Cl)cc2)c2c(N)ncnc21 [PP2, 4-Amino-5-(4-chlorophenyl)-7-(t-butyl)pyrazolo[3,4-d]pyrimidine] | – | – | – | proportion of endo H-resistant population of WNV E protein (WNV E protein): dramatically decreased; viral RNA within infected cells, treated vs untreated (WNV RNA): no significant difference; virus within the infected cell, lower than untreated (WNV; 24 hours post-addition of fresh PP2): approximately 500 fold; decrease of infectious virus within infected cell lysates (WNV; four hours post-addition of fresh PP2): ~10^6 fold; anti-HIV activity (p24 production) (HIV-1 89.6 [1]; HIV-infected cells, 20 μM): substantial inhibition of HIV; decrease of infectious WNV in the supernatant (WNV (NY1999)): 30 fold; HIV-induced syncytia formation (HIV-infected MT-2 cells): substantially reduced syncytia formation; HIV p24 production (HIV-1 89.6 [2]): substantial decrease
3 | CN(C)CCC=C1c2ccccc2COc2ccccc21 [doxepin] | – | – | – | compound toxicity (XTT respiration assay) [3]: Except for the higher concentration of doxepin, the compounds were not toxic
4 | ARF1 (antisense ATGCTTGTGGACAGGTGGAAGGACA; all phosphorodiamidate morpholino (PMO)) | (negative) | little or no affect on HIV replication | – | –
5 | HMG20B (antisense CGCCCAGCATCTTGGTGATCTCGGG; all phosphorodiamidate morpholino (PMO)) | positive | particularly effective at reproducibly inhibiting HIV replication | particularly effective at reproducibly inhibiting HIV replication | –
6 | HRH1 (antisense GCGAAAGAGCAGCCGCCAGTTATGG; all phosphorodiamidate morpholino (PMO)) | positive | particularly effective at reproducibly inhibiting HIV replication | particularly effective at reproducibly inhibiting HIV replication | –
7 | YES (antisense TTTCTTTACTTTTAATGCAGCCCAT; all phosphorodiamidate morpholino (PMO)) | positive | particularly effective at reproducibly inhibiting HIV replication | particularly effective at reproducibly inhibiting HIV replication | –
8 | c-yes-specific siRNA 214 (guide AACGCCUUUUGGAGGUGCAUC; chemistry not given here; listed as Homo sapiens) | – | – | – | c-yes mRNA (c-yes mRNA): reduction of c-yes mRNA
